16 compounds from patent publication US20220041641A1, “QUATERNARY AMMONIUM SALTS AS INHIBITORS OF TRIMETHYLAMINE PRODUCTION” (Senda Biosciences, Inc., priority 2018, published 2022) can be followed below.

For one experiment, the system named is CutC/D enzyme. Put plainly: Acute mouse model (plasma TMAO on choline diet). The experiment is classed as in vivo, male C57BL/6 mice. The procedure: The following acute mouse model may be used to determine inhibition of the CutC/D enzyme and thus the inhibition of the formation of trimethylamine (TMA) from choline.
On day 1, male C57BL/6 mice were given a chemically defined diet (Tekland Global Rodent Diet 2018) containing 1.0% choline (g/g) for the duration of the experiment. Concurrently on day 1, mice were orally gavaged with 200 μL of compounds of interest (formulated in water). Mice were orally gavaged with the compounds and vehicle control again on day 2 and day 3 at a fixed time. Twenty hours after the last gavage, mice were sacrificed, and plasma was collected and prepared for detection of trimethylamine-N-oxide (TMAO) via liquid chromatography with on-line tandem mass spectrometry (LC-MS/MS). Food consumption and mouse weight were measured each day.
Plasma samples were prepared for LCMS as follows: An aliquot of 20 μL plasma sample was protein precipitated with 200 μL internal standard solution (100 ng/mL Labetalol & 100 ng/mL Tolbutamide & 100 ng/mL Diclofenac in acetonitrile, the mixture was vortex-mixed and centrifuged at 4000 rpm for 15 min, 4° C. An aliquot of 100 μL supernatant was transferred to the sample plate for LCMS injection. 1 μL of sample was injected onto an LC column for TMAO LCMS analysis.
Concentrations of TMAO were determined with a calibration curve ranging 0.05-100 μM for d9-TMAO in control plasma.

The target in experiment [1] is CutC from Proteus mirabilis (Proteus mirabilis, UniProt B4EYG1). Put plainly: Cell-based assay for TMA production from a native producer (P. mirabilis). An excerpt: In each bacterium, CutC was modified into its activated form by a cognate activating enzyme, CutD (protein EDU36696.1 for C. sporogenes; protein WP_004249185.1 for P. mirabilis). […] Trimethylamine may subsequently be converted by human enzymes such as flavin monooxygenase 3 to trimethylamine N-oxide, which might be associated with negative health consequences in humans.
A compound's ability to inhibit CutC from Proteus mirabilis and C. sporogenes from converting choline into trimethylamine was tested in cells as described. A BHI blood plate was inoculated with a frozen stock of Proteus mirabilis or Clostridium sporogenes under anaerobic conditions. A single colony was isolated from the plate and inoculated into 5 mL BHI supplemented with 1 mM choline under anaerobic conditions. The liquid cultures were grown overnight at 37° C.
To prepare each sample, 300 μL of the saturated culture was then inoculated into a 30 mL dilution blank under anaerobic conditions. 1 mM (trimethyl-d9)-choline and a sufficient amount of a compound to obtain a final concentration of 10 μM were added to the inoculated dilution blank. […] The mixture was incubated at 37° C. for 5 h. […] After centrifugation, the samples were analyzed by LCMS to determine the amount of d9-TMA produced.

Setting [2] is: Table 4d, 100 mg/kg oral gavage days 1-3.
Where [3] appears, read: Table 4d, 100 mg/kg oral gavage days 1-3, plasma 20 h after last gavage.
Where [4] appears, read: d9-TMA from 1 mM d9-choline, 5 h, 37° C.; value 10 given when no fit or % TMA remaining at 10 μM higher than 15%; read-out: Average IC50 Whole cell P. mirabilis.

SMILES strings stand for the structures. Counter-ions that a name gives are not always drawn. Like-named read-outs stand apart in the source and are kept apart here.

Sequence of CutC from Proteus mirabilis (B4EYG1 entry or part of it): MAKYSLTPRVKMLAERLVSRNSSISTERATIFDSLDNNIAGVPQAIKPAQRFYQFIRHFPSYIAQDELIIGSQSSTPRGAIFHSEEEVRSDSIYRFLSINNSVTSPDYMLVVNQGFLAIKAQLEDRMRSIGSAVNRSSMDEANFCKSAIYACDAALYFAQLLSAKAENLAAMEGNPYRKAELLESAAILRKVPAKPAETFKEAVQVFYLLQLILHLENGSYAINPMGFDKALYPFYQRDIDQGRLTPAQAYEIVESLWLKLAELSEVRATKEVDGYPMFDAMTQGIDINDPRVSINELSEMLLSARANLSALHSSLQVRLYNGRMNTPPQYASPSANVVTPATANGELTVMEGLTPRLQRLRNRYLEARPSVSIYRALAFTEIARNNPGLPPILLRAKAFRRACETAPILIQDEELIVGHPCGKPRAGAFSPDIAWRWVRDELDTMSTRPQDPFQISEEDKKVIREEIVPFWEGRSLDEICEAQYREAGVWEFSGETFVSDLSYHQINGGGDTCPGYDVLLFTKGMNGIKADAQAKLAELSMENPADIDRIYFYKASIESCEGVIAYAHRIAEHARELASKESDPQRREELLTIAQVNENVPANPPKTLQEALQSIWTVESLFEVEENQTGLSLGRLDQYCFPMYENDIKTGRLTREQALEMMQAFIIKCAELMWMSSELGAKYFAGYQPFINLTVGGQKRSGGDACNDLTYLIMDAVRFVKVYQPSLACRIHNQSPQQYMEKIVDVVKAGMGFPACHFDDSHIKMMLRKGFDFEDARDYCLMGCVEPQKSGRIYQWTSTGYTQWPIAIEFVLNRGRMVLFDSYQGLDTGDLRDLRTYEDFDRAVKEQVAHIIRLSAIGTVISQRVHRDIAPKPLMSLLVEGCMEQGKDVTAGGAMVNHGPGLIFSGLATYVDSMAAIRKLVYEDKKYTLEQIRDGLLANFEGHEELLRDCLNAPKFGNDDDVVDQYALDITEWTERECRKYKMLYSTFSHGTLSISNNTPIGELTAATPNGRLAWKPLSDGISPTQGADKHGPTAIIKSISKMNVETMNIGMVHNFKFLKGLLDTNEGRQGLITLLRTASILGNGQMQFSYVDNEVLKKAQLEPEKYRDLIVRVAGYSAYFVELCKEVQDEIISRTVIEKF
Sequence of CutC from Proteus mirabilis (B4EYG0 entry or part of it, further chain): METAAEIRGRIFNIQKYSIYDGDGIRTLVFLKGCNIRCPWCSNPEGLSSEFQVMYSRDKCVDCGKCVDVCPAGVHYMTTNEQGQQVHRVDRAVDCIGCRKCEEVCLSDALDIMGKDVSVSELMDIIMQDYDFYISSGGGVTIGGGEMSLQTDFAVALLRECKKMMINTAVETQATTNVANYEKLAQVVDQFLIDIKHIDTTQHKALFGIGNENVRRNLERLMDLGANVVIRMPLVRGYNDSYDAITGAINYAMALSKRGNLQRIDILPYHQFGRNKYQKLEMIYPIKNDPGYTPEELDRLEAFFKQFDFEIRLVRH

On to `C#CC[N+](C)(C)CCOC1OC[C@@H](OC(C)=O)[C@@H](OC(C)=O)[C@H]1OC(C)=O.[Br-]` (stereo partly drawn) [Compound 9, N,N-dimethyl-N-(2-(((3R,4R,5R)-3,4,5-triacetoxytetrahydro-2H-pyran-2-yl)oxy)ethyl)prop-2-yn-1-aminium bromide], for which, in the experiment on CutC/D enzyme (setting [2]), the “% change from vehicle control + choline diet” value (from here on “% change”) came to 80%. In the experiment on CutC/D enzyme (setting [3]), the “Mean plasma TMAO” value is 33.91 µM.

With `C#CC[N+](C)(C)CCO[C@@H]1OC[C@H](OC(C)=O)[C@H](OC(C)=O)[C@H]1OC(C)=O.[I-]` [Compound 10, N,N-dimethyl-N-(2-(((3R,4S,5S)-3,4,5-triacetoxytetrahydro-2H-pyran-2-yl)oxy)ethyl)prop-2-yn-1-aminium Iodide], the “% change” value with CutC/D enzyme (setting [2]) was −21%. Moreover, in the experiment with CutC/D enzyme (setting [3]), the “Mean plasma TMAO” value was 14.9 µM. On to `C#CC[N+](C)(C)CC(=O)O[C@H]1O[C@H](COC(C)=O)[C@@H](OC(C)=O)[C@H](OC(C)=O)[C@H]1OC(C)=O.O=C([O-])C(F)(F)F` [Compound 19, N,N-dimethyl-N-(2-oxo-2-(((2R,3R,4S,5R,6R)-3,4,5-triacetoxy-6-(acetoxymethyl)tetrahydro-2H-pyran-2-yl)oxy)ethyl)prop-2-yn-1-aminium trifluoroacetate], for which the “% change” value in the experiment with CutC/D enzyme (Table 4a, 333 mg/kg oral gavage days 1-3) is −84.29%. The “Mean plasma TMAO” value with CutC/D enzyme (Table 4a, 333 mg/kg oral gavage days 1-3, plasma 20 h after last gavage) amounted to 5.40 µM. The IC50 in experiment [1] (setting [4]) is 1730 nM. For `C#CC[N+](C)(C)CCCCOC1O[C@@H](C)[C@@H](OC(=O)CCC)[C@@H](OC(=O)CCC)[C@@H]1OC(=O)CCC.[Br-]` (stereo partly drawn) [Compound 58, N,N-dimethyl-N-(prop-2-yn-1-yl)-4-(((3S,4R,5R,6S)-3,4,5-tris(butyryloxy)-6-methyltetrahydro-2H-pyran-2-yl)oxy)butan-1-aminium bromide], the “% change” value in the experiment with CutC/D enzyme (Table 4d, 10 mg/kg oral gavage days 1-3) was −46%. Further, the “Mean plasma TMAO” value with CutC/D enzyme (Table 4d, 10 mg/kg oral gavage days 1-3, plasma 20 h after last gavage) was 10.1 µM.

With `C[N+](C)(CCO)C1COC1` [Compound 219, N-(2-hydroxyethyl)-N,N-dimethyloxetan-3-aminium trifluoroacetate], in experiment [1] (setting [4]), the IC50 is greater than 10000 nM.

In the case of `C[N+]1(C)CCOCC1CO` (stereo not shown) [Compound 220, 3-(hydroxymethyl)-4,4-dimethylmorpholin-4-ium], in experiment [1] (setting [4]), the IC50 is greater than 10000 nM.

With `C#CC[N+](C)(C)CCS(=O)(=O)O` [Compound 221, dimethyl(prop-2-yn-1-yl)(2-sulfoethyl)azanium Trifluoroacetate], the IC50 in experiment [1] (setting [4]) was greater than 10000 nM. Same read-out and setting: as for `C#CC[N+](C)(C)CCCB(O)O` [Compound 222, {3-[dimethyl(prop-2-yn-1-yl)azaniumyl]propyl}boronic Acid], the figure is greater than 10000 nM.

For the compound `C#CC[N+](C)(CC#C)CCS(=O)(=O)O` [Compound 223, methylbis(prop-2-yn-1-yl)(2-sulfoethyl)azanium], the half-inhibitory concentration (IC50) in experiment [1] (setting [4]) was 2280 nM.

As for `C#CC[N+](C)(C)Cc1ncno1` [Compound 224], the 50% inhibitory concentration (IC50) in experiment [1] (setting [4]) was 223 nM. Still for that read-out and setting: as for `CCC[N+](C)(CF)CCO` (stereo not shown) [Compound 225], the figure is 629 nM. Still for that read-out and setting: as for `C#CC1CCC[N+]1(C)C` (stereo not shown) [Compound 226], the figure is 244 nM.

For the compound `C#CC[N+](C)(C)CC[PH](=O)O` [Compound 227, {2-[dimethyl(prop-2-yn-1-yl)azaniumyl]ethyl}phosphinic Acid], the half-inhibitory concentration (IC50) in experiment [1] (read-out: Average IC50 Whole cell P. mirabilis; d9-TMA from 1 mM d9-choline, 5 h, 37° C.; value 10 given when no fit or % TMA remaining at 10 μM higher than 15%) was greater than 10000 nM.

For the compound `COCC[N+](C)(C)CF` [Compound 228, (fluoromethyl)(2-methoxyethyl)dimethylazanium Iodide], the IC50 in experiment [1] (setting [4]) was greater than 10000 nM. Still for that read-out and setting: as for `CSCC[N+](C)(C)CF` [Compound 229, (fluoromethyl)dimethyl[2-(methylsulfanyl)ethyl]azanium], the figure is greater than 100000 nM. Consider `CC(=O)OC[C@H]1OC(OCC[N+](C)(C)C2CC2)[C@H](OC(C)=O)[C@@H](OC(C)=O)[C@@H]1OC(C)=O.[I-]` (stereo partly drawn) [Compound 312, N,N-dimethyl-N-(2-(((3R,4S,5R,6R)-3,4,5-triacetoxy-6-(acetoxymethyl)tetrahydro-2H-pyran-2-yl)oxy)ethyl)cyclopropanaminium iodide], for which, in the experiment with CutC/D enzyme (Table 4d, 35.4 mg/kg oral gavage days 1-3), the “% change” value is reported as −38%. Moreover, the “Mean plasma TMAO” value with CutC/D enzyme (Table 4d, 35.4 mg/kg oral gavage days 1-3, plasma 20 h after last gavage) was determined as 11.69 µM.

The term IC50 denotes the concentration needed to halve the response being measured.
